{"source": "patent US10077436B2", "about": "“Beta-glucosidase enzymes for increased biomass saccharification” (Edeniq, Inc., priority 2013, dated 2018)", "key": {"[1]": {"biological_target": "S-BG (Novozymes SP188 from Sigma), commercial beta-glucosidase", "assay": "BG kinetics, cellobiose hydrolysis assay (HPLC) with glucose as competitive inhibitor, S-BG", "assay_type": "biochemical", "settings": "pH 4.8, 50° C.", "source_text": "(§1) The kinetic properties of beta glucosidase are important for cellulosic hydrolysis, since in commercial situations a wide range of substrate concentrations and different product inhibition conditions will be encountered. In this example, a Michaelis-Menten kinetics model was used to describe BG kinetics. To determine these kinetic properties, BG activity assays using standard substrates pNPG and cellobiose were employed. yEdQ745-BG (wild type) and yEdQ885-BG (improved), were compared with two commercial BGs, A-BG (Accellerase®) BG from Dupont) and S-BG (Novozymes SP188 from Sigma).\nBG activity assay using cellobiose is the other standard assay to measure BG or cellobiase activity, which utilizes hydrolysis of cellobiose by cellobiase into two molecules of glucose, the last step of enzymatic hydrolysis of cellulose. One cellobiase unit (commonly termed as CBU) is defined as the amount of enzyme that converts […] of cellobiose or produces 2 μmol of glucose per min. Briefly, to determine BG activity, 25 μL of diluted enzyme in 50 mM citrate buffer (pH 4.8) equilibrated to 50° C. was mixed with 25 μL cellobiose (or cellobiose/glucose mixture for the kinetic study) to start the reaction. The mixture was incubated at 50° C. for 10 min, and the reaction was terminated by incubating the mixture at 99° C. for 5 min. Different methods are available to measure the glucose produced in the assays. For the kinetic study, HPLC was used.\nTo determine kinetic properties using cellobiose substrate, duplicate assays with cellobiose concentrations ranging from 0.47 to 15 mM and glucose concentrations of 0, 0.9, 4.5, 6.75, and 8.1 (for A-BG) or 9 (for all the other three BGs) g/L were performed. As for pNPG substrate, the range of cellobiose substrate concentration was chosen to show detectable activity at the lowest substrate concentration and saturation stage at high substrate concentration. However, in contrast to the pNPG substrate, when there was still some activity left at glucose concentration up to 36 g/L, most of the BG activity was lost at an inhibitor level of 9 g/L when cellobiose substrate was used. […] It should also be noted that colorimetric glucose assay cannot provide activity results for inhibitory glucose levels above 0.9 g/L after several trials. Therefore, HPLC measurements were used for kinetic studies using cellobiose substrate. It should be pointed out that the HPLC method may not be sensitive enough either to capture BG activity under more severe glucose inhibition conditions than 9 g/L of glucose. Moreover, theoretically there are two ways to measure BG activity by HPLC when cellobiose is used as the substrate: tracking consumption of cellobiose or tracking production of glucose. However, as shown by the example of one set of results from S-BG in Table 3, tracking glucose is problematic due to measurement sensitivity. In Table 3, A % is defined as follows and is an indicator of measurement sensitivity, since the difference of substrate or product concentrations before and after reaction was used to determine BG activity. Δ%=(start conc. of cellobiose−end conc. of cellobiose)/start conc. of cellobiose×100% (3) Δ%=(end conc. of glucose−start conc. of glucose)/start conc. of glucose×100% (4)\nWith increasing inhibitor (glucose) level, Δ% is decreasing. For the case of tracking glucose, Δ% was too small to be reliable when 4.5 g/L of glucose was added at the beginning. […] Thus, the approach of tracking cellobiose was chosen due to its higher detection sensitivity. In the substrate range used to determine kinetic parameters (0.47 to 30 mM for A-BG and 0.47 to 15 mM for the other three BGs), the detection sensitivity is reasonable.\nA similar simultaneous nonlinear regression method based on the competitive inhibition equation expressed in Equation (1) was used to determine kinetic parameters of BG towards cellobiose. […]"}, "[2]": {"biological_target": "T1, Aspergillus niger beta-glucosidase (CAB75696.1, SEQ ID NO:2) improved variant yEdQ885-BG (Aspergillus niger, UniProt Q9P8F4, Y363C/Y375F/Y610F)", "T1 construct": "strain yEdQ885, BG acid/base mutant #8", "T1 sequence (Q9P8F4 20-860 Y363C/Y375F/Y610F)": "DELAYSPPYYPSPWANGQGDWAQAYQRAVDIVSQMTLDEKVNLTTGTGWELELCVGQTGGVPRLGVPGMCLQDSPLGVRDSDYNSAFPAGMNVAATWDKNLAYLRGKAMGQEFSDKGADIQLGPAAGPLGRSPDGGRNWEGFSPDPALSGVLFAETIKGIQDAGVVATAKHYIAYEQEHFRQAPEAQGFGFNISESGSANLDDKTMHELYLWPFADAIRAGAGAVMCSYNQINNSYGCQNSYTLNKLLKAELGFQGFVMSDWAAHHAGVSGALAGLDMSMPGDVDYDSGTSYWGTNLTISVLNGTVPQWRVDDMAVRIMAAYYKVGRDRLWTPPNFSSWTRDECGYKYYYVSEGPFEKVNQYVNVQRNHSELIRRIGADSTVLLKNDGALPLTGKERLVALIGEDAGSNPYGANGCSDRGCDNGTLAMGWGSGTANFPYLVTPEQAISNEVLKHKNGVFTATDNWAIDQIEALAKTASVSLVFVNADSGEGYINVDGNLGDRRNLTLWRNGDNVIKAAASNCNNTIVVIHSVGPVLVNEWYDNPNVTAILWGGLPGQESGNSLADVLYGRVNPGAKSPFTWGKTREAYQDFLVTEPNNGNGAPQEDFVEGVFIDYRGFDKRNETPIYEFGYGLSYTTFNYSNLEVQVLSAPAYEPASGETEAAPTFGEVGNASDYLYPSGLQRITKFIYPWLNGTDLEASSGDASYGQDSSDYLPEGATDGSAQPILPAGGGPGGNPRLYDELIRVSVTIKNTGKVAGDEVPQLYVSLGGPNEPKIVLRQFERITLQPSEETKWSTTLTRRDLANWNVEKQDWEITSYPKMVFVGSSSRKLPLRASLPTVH", "assay": "BG kinetics, cellobiose hydrolysis assay (HPLC) with glucose as competitive inhibitor, yEdQ885-BG", "assay_type": "biochemical", "source_text": "The beta-glucosidase (BG) gene from Aspergillus niger (Accession #CAB75696.1) was integrated into the TR3 yeast background at the T4U3 genomic site.\nHigh resolution enzyme assays and kinetic testing comparing the beta-glucosidases described herein and commercial enzyme preparations were pursued to more clearly quantify differences in mutant BG enzymes compared to the wild type BG enzyme. Based on data presented herein, BG mutant YEdQ885 was selected for further analysis and compared to the BG activity present in commercial preparations of SP188 (Novozymes) and Accellerase® BG (DuPont) as well as wild type BG.\nas §1, with “Sigma). […]” for “Sigma).”"}}, "data": [{"smiles": "OC[C@H]1OC(O)[C@H](O)[C@@H](O)[C@@H]1O", "note": "(stereo partly shown) [glucose]", "values": [{"measurement": "Ki", "setting": "[1]; cellobiose substrate, competitive inhibition", "result": "3130 ± 760", "unit": "µM"}, {"measurement": "Km/Ki", "setting": "[1]; inhibitor influence, Km for cellobiose / Ki for glucose", "result": 0.51}, {"measurement": "Ki", "setting": "[2]", "result": "1110 ± 190", "unit": "µM"}, {"measurement": "Km/Ki", "setting": "[2]; inhibitor influence, Km for cellobiose / Ki for glucose, pH 4.8, 50° C.", "result": 1.31}]}]}
